Data set [1] has as its system rabbit platelets. The data set is described as follows: Effect on platelet aggregation of rabbit platelets. The data set is classed as cell-based, white rabbit. As to conditions: for IC50: Oryctolagus cuniculus, Platelet, 37° C., read-out: IC50 (concentration of the test compound showing 50% inhibition), platelet aggregation. The method, then:
Effect on platelet aggreation of rabbit platelets
8.5 vol of blood was sampled from the carotid artery of a white rabbit and placed in a FALCON 2070 tube (product of Falcon, Bector Dickinson) containing 1.5 vol of citrate-dextrose soluton (71 mM citric acid, 85 mM sodium citrate and 111 mM dextrose). The thus obtained blood was centrifuged at 200×g for 15 minutes to obtain PRP. This PRP was centrifuged at 650×g for 10 minutes to obtain platelet precipitates. After washing with Ca^++ -free Tyrode's solution containing 2 mM ethyleneglycol bis(2-aminoethylether) tetraacetic acid (EGTA), the platelet precipitates were again centrifuged at 650 ×g for 10 minutes and washed. The thus obtained platelet precipitates were suspended in Ca^++ -free Tyrode's solution containing 0.25% bovine serum albumin to reach a density of 5×10^8 cells/ml. After the washed platelet suspension was allowed to stand at room temperature for about 30 minutes, 1 mM CaCl2 or 1 mM EGTA was added thereto and the mixture was allowed to stand for further 30 minutes. Then, platelet aggregation was measured.
The aggregation of platelets was determined using an aggregometer, AGGRETEC TE-500 (product of Erma Optical Co., Ltd.) to which the Born method was applied.
First, 10 μl of a test compound soluton was added to 0.2 ml of the washed platelet suspension, while stirring at 1,000 rmp and at 37° C. After incubation at 37° C. for 3 minutes, 10 μl of thrombin (final concentration: 0.05 U/ml) or platelet activating factor (final concentration: 10^-10 M) was added as a stimultant to initiate the reaction. The rate of inhibition of platelet aggregation of the test compound was calculated from the maximum aggregation rate obtained by the use of the test compound and the maximum aggregation rate obtained by the use of only the solvent used for dissolving the test compound, according to the following equation. [formula] A : Maximum aggregation rate of the solvent alone B : Maximum aggregation rate of the test compound
*Concentration of the test compound showing 50% inhibition.

Data set [2] can be described thus: Solubility. Type of data set: physicochemical.
For data set [3], the system named is rabbit platelets. As to the kind of experiment: Effect on serotonin release from rabbit platelets. The data set is classed as cell-based, white rabbit. As to conditions: for inhibition at 10 µg/mL: 10.0 μg/ml; for inhibition at 30 µg/mL: 30.0 μg/ml. As to the method: Effect on serotonin release from rabbit platelets
9.25 vol of blood was sampled from the carotid artery of a white rabbit and placed in a FALCON 2070 tube (product of Falcon, Bector Dickinson) containing 0.75 vol of 77 mM ethylenediaminetetraacetic acid (EDTA). The thus obtained blood was centrifuged at 200 x g for 15 minutes to obtain platelet rich plasma (referred to as PRP hereinafter). This PRP was incubated with [2-^14 C]-serotonin (2 μCi/100 ml PRP) at 37° C. for an hour to incorporate [2-^14 C]-serotonin therein. Then, the PRP was centrifuged at 650 x g for 15 minutes to obtain platelet precipitates. After washing with Tris-buffered physiological saline (pH 7.4, containing 1 mM EDTA), the platelet precipitates were suspended in CA^++ -free Tyrode's soluton to reach a final density of 10^9 cells/ml.
To 0.475 ml of the thus prepared [2-^14 C]-serotoninlabeled platelet suspension was added 5 μl of a solution of the test compound. After incubation at 37° C. for 3 minutes, platelet activating factor (final concentration: 10^-9 M) was added as a stimulant, followed by incubation for further 3 minutes. 0.3 ml of the reaction solution was immediately taken and poured into 30 µl of ice-cold 0.1 mM formaldehyde5mM EDTA solution to terminate the reaction. After centrifugation at 3,000 rpm at 0° C. for 10 minutes, 250 μl of the supernatant was taken and the radioactivity was measured with a liquid scintillation counter.
*The rate of inhibition of serotonin release was calculated according to
the following equation.

Where [4] appears, read: hexane, carbon tetrachloride, benzene, neutral water, acidic water.
[5] abbreviates: Oryctolagus cuniculus, stimulant platelet activating factor 10^-9 M, 37° C., read-out: Rate of inhibition of serotonin release.

In brackets after ≈: the same amount, converted by molar mass. Entries after “also recorded” stand apart in the source; their conditions may differ. Where two headings read alike, the source gives them in different places.

As a reminder, the inhibition is how much of the control response was suppressed. On to `CCCCCCCc1cc(O)cc(OC(=O)c2c(CCCCCCC)cc(O)cc2OC2OC(C(O)CO)C(O)C2O)c1` (stereo not drawn) [KS-501], for which the “Inhibition of platelet aggregation (in words)” value in data set [1] is “inhibitory activity on platelet aggregation; also recorded: inhibited platelet aggregation stimulated with thrombin and platelet activating factor”. The IC50 came to 38 mg/L (≈ 62.8 µM) in data set [1] (stimulant platelet activating factor, final concentration 10^-10 M) and 57 mg/L (≈ 94.3 µM) in data set [1] (stimulant thrombin, final concentration 0.05 U/ml). Moreover, the Solubility result in data set [2] (KS-501: chloroform, ethyl acetate, acetonitrile, methanol, n-butanol, acetone, tetrahydrofuran, dioxane, dimethylsulfoxide, pyridine, monoethanolamine, acetic acid, alkaline water) is “Readily soluble”; in data set [2] (setting [4]) it was “Insoluble”. In data set [3], the “Inhibition of serotonin release from platelets (in words)” value is on record as “inhibitory activity on serotonin release from platelets; also recorded: inhibited serotonin release from rabbit platelets, depending on the concentration”. Also, the inhibition at 3 µg/mL in data set [3] (Oryctolagus cuniculus, 3.0 μg/ml, stimulant platelet activating factor 10^-9 M, 37° C., read-out: Rate of inhibition of serotonin release) was 10.2%. For the same molecule, the inhibition at 10 µg/mL in data set [3] (setting [5]) amounted to 27.1%. Also, the inhibition at 30 µg/mL in data set [3] (setting [5]) was determined as 66.4%.
`CCCCCCCc1cc(OC(=O)c2c(CCCCCCC)cc(O)cc2OC2OC(C(O)CO)C(O)C2O)cc(O)c1C(=O)O` (stereo not drawn) [KS-502]: the Solubility result in data set [2] (KS-502: chloroform, ethyl acetate, acetonitrile) is listed as “Soluble”; in data set [2] (setting [4]), “Insoluble”. In addition, the “Inhibition of serotonin release from platelets (in words)” value in data set [3] was “inhibitory activity on serotonin release from platelets; also recorded: inhibited serotonin release from rabbit platelets, depending on the concentration”. In addition, the inhibition at 10 µg/mL in data set [3] (setting [5]) worked out at 2.7%. The inhibition at 30 µg/mL in data set [3] (setting [5]) worked out at 28.9%. Besides, in data set [3] (Oryctolagus cuniculus, 50.0 μg/ml, stimulant platelet activating factor 10^-9 M, 37° C., read-out: Rate of inhibition of serotonin release), the inhibition at 50 µg/mL came to 51.4%.

The values are drawn from patent US4868159A, “Novel substances KS-501 and KS-502 and process for their preparation” (Kyowa Hakko Kogyo Co., Ltd., priority 1987, dated 1989).
